Test results published in patent US20260226026A1, “COMPOUND AS CTPS1 INHIBITOR” (Hangzhou Innogate Pharma Co., Ltd., priority 2023, published 2026).

Assays:
Jurkat cells = assay: Inhibition of Jurkat cell proliferation (CellTiter-Glo, 72 hours); assay type: cell-based; details: Homo sapiens; Jurkat cells, 72 hours, CellTiter-Glo; read-out: Jurkat (IC50)
Method: Select Jurkat cells in good growth condition and digest them with trypsin. Add fresh culture medium, mix thoroughly, and centrifuge at 1000 rpm for 5 minutes. Seed the cells into a 96-well plate at a density of 10,000 cells per well, and incubate overnight in a 37° C. incubator. On the following day, take out of the culture plate and treat the cells with compounds prepared in a five-fold serial dilution. Return the plate to the 37° C. incubator and continue incubation for 72 hours.
After incubation, bring out the cell culture plate and equilibrate it to room temperature. Add 100 μL of CellTiter-Glo reagent to each well, shake in the dark for 2 minutes, and incubate for 10 minutes. Measure the luminescence using an Enspire plate reader. Calculate the inhibition rate using the following formula: Inhibition rate (%)=(1−(RLU_compound−RLU_blank)/(RLU_DMSO−RLU_blank))×100%. Plot the dose-response curve and calculate the IC50 value using XLFit.

in vivo = assay: in vivo; parameters: species or system SD rats; details: male, SD, rat, po
Method: Instrumentation: SCIEX Triple Quad 6500+ triple quadrupole liquid chromatography-mass spectrometry system (LC-MS/MS), operating software is Analyst 1.7.2 (Applied Biosystems, USA); ExionLC liquid chromatography system; Microsoft Excel was used for data calculation and processing. Pharmacokinetic parameters were calculated using the statistical moment method with WinNonlin 8.2 software. Key kinetic parameters included Tmax, T1/2, Cmax, AUC0-24 h etc. Column: Synergi 4 μm Fusion-RP 80 Å Luna C18 2 mm*50 mm, 4 μm; Column temperature: 40° C.; Mobile phase A: Water (0.1% formic acid); Mobile phase B: Acetonitrile; Flow rate: 0.8 mL/min; Gradient elution is adopted, the elution gradient is 0.10 min: 15% B; 1.60 min: 95% B; 1.90 min: 95% B; 1.91 min: 15% B; 2.20 min: 15% B. Injection volume: 1 μL.
Animals: 3 male SD rats with a weight range of 200-220 g were purchased and kept in the laboratory of the Experimental Animal Center for 3 days and then used. They were fasted for 12 hours predose and 4 hours after dosing. Drinking water was free during the test. After the rats were gavage, blood samples were taken according to the established time point.
Solvent: 0.4% ethanol+0.4% Tween80+99.2% (0.5% methylcellulose M450). Preparation of the solution for intragastric administration: Compounds were accurately weighed and added to the solvent. The mixture was then subjected to vortex mixing and sonication until a homogeneous suspension was achieved, thereby preparing medicinal solutions of the desired concentrations.
Compound samples: Typically, multiple structurally analogous compounds (with molecular weights differing by more than 2 units) were accurately weighed and administered together (cassette PK). This approach allows for the simultaneous screening of multiple compounds and comparison of their oral absorption rates. Single compound administration was also employed to study the pharmacokinetics of drug samples in rats.
After intragastric administration, blood was collected from the jugular vein at 0.25, 0.5, 1, 2, 4, 8, 10 and 24 hours. Transfer 20 μL of plasma sample (for blank samples and internal standard blank samples, add 20 μL of blank plasma) to a 1.5 mL centrifuge tube, add 200 μL of internal standard solution (50% methanol in acetonitrile (concentration 100 ng/mL)) (for Double blank samples, add 200 μL of 50% methanol in acetonitrile solution). Vortex the samples for 5 minutes, then centrifuge at 14000 rpm and 4° C. for 5 minutes. Transfer 80 μL and add to 80 μL of water, mix uniformly, and submit for LC-MS/MS analysis.
The compounds were accurately weighed to prepare different concentrations, and quantitative analysis on mass spectrometry was performed to establish a standard curve, and then the concentration of the above-mentioned compound in the plasma was tested to obtain its concentration at different time points. All measurement data were collected and processed by relevant software, and the statistical moment method was used to calculate the pharmacokinetic parameters (mainly including kinetic parameters Tmax, T1/2, Cmax, AUC0-24 h etc).

hCTPS1 enzyme = biological target: T1, hCTPS1 enzyme (Homo sapiens, UniProt P17812); assay: Inhibition of CTPS1 enzyme activity (ADP-Glo method); assay type: biochemical; details: hCTPS1, 90 min reaction at 25° C.
T1 sequence (P17812 1-591): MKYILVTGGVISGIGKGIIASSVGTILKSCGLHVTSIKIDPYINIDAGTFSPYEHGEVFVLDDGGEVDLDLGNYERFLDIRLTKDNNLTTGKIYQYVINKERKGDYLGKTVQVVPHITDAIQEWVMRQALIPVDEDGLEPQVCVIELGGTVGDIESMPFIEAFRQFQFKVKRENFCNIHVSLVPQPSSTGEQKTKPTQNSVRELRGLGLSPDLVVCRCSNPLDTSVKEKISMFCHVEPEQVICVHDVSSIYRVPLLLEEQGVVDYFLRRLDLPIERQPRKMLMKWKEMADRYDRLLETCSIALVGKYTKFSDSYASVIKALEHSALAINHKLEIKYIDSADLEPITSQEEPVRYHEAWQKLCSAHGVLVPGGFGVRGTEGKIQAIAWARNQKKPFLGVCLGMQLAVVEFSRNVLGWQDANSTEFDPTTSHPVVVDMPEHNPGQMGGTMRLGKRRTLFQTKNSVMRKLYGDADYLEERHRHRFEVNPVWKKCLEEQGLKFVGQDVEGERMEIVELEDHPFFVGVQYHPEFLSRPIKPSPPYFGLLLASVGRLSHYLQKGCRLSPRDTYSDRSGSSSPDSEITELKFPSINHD
Method: The enzyme activity of CTPS1 was tested using the ADP-Glo method. Compounds were serially diluted in DMSO with 3-fold gradients across ten concentrations. Transfer 0.1 μL of diluted compound to a 384-well plate, centrifuge at 1000 rpm for 1 min. Add 2.5 μL of hCTPS1 enzyme working solution, centrifuge at 1000 rpm for 1 min, and incubate at 25° C. for 10 min. Add 2.5 μL of ATP & UTP solution and incubate at 25° C. for 10 min. Add 5 μL of substrate solution to initiate the reaction and incubate at 25° C. for 90 min. Add 10 μL of ADP-Glo solution to the 384-well plate, centrifuge at 1000 rpm for 1 min, incubate at 25° C. for 40 min, add 20 μL of detection solution, centrifuge at 1000 rpm for 1 min, and incubate at 25° C. for 60 min. […] were read using a BMG microplate reader. Inhibition rate (%) was calculated as follows: Inhibition rate (%)=[(DMSO control well signal−Compound well signal)/(DMSO control well signal−Blank control well signal)]×100%. IC50 values for compounds were analyzed by nonlinear regression in XLFit 5.5.0 software using the formula: Y=Bottom+(Top−Bottom)/(1+10^((LogIC50−X)*HillSlope)) where Y is the inhibition rate and X is the log value of compound concentration.

IC50 (Jurkat cells)	AUC(0-t) (in vivo; 2 mg/kg)	Cmax (in vivo; 2 mg/kg)	Tmax (in vivo; 2 mg/kg)	half-life (in vivo; 2 mg/kg)	IC50 (hCTPS1 enzyme)	AUC(0-t) (in vivo; 3 mg/kg)	Cmax (in vivo; 3 mg/kg)	Tmax (in vivo; 3 mg/kg)	half-life (in vivo; 3 mg/kg)	SMILES
< 15 nM	33 ng·h/mL	10.5 ng/mL	1.17 h	1.77 h	< 25 nM					CCOc1cncc(-c2ccc(NC(=O)C3(c4ccnc(NS(=O)(=O)C5CC5)n4)CCC(=CCCO)CC3)nc2)n1 (stereo not drawn) [Compound 44]
< 15 nM					< 25 nM	40800 ng·h/mL	6810 ng/mL	2.17 h	1.83 h	CCOc1cncc(-c2ccc(NC(=O)C3(c4cncc(NS(=O)(=O)C5CC5)n4)CCC(=C(F)F)CC3)nc2)n1 (stereo not drawn) [Compound 68]
< 15 nM					< 25 nM	37600 ng·h/mL	4820 ng/mL	2.33 h	3.03 h	CCOc1cncc(-c2ccc(NC(=O)C3(c4ccnc(NS(=O)(=O)C5CC5)n4)CCC(=CCC4COC4)CC3)nc2)n1 (stereo not drawn) [Compound 63]
< 15 nM					< 50 nM	46.7 ng·h/mL	33.1 ng/mL	0.25 h	1.8 h	CCOc1cncc(-c2ccc(NC(=O)C3(c4ccnc(NS(=O)(=O)C5CC5)n4)CCC(=CCN4CC(OC)C4)CC3)nc2)n1 (stereo not drawn) [Compound 28]
< 15 nM	2160 ng·h/mL	1020 ng/mL	0.25 h	1.13 h	< 25 nM					CCOc1cncc(-c2ccc(NC(=O)C3(c4ccnc(NS(=O)(=O)C5CC5)n4)CCC(=C(F)C4COC4)CC3)nc2)n1 (stereo not drawn) [Compound 50]

SMILES	IC50 (Jurkat cells)	AUC(0-t) (in vivo; 2 mg/kg)	Cmax (in vivo; 2 mg/kg)	Tmax (in vivo; 2 mg/kg)	half-life (in vivo; 2 mg/kg)	IC50 (hCTPS1 enzyme)	AUC(0-t) (in vivo; 3 mg/kg)	Cmax (in vivo; 3 mg/kg)	Tmax (in vivo; 3 mg/kg)	half-life (in vivo; 3 mg/kg)
CCOc1cncc(-c2ccc(NC(=O)C3(c4ccnc(NS(=O)(=O)C5CC5)n4)CCC(=CC4CCOCC4)CC3)nc2)n1 (stereo not drawn) [Compound 32]	< 15 nM					< 25 nM	15700 ng·h/mL	4020 ng/mL	0.83 h	1.34 h
CCOc1cncc(-c2ccc(NC(=O)C3(c4ccnc(NS(=O)(=O)C5CC5)n4)CCC(=C(F)F)CC3)nc2)n1 (stereo not drawn) [Compound 1]	< 30 nM					< 25 nM	68800 ng·h/mL	11300 ng/mL	0.83 h	4.98 h
